Values after ≈ are worked out from the molar mass of the structure shown. Active and inactive are the calls of the source. The calls are words filed in the database; no cut-off is given here.
Columns and labels:
[1] = Reduction in cMyc expression in human COLO 320HSR cells incubated for 24 hrs by HTRF assay; assay type: functional, cell-based
[2] = AUC (0 to inf) in CD1 mouse at 5 mg/kg, po by LC-MS/MS analysis; assay type: ADME, organism-based; parameters: time infinity, dose 5 mg/kg, route po; conditions: in vivo
[3] = Oral bioavailability in CD1 mouse at 5 mg/kg by LC-MS/MS analysis; assay type: ADME, organism-based; conditions: in vivo
[4] = Cmax in CD1 mouse at 5 mg/kg, po by LC-MS/MS analysis; assay type: ADME, organism-based; parameters: dose 5 mg/kg, route po; conditions: in vivo
[5] = Clearance in Han Wistar rat at 1 mg/kg, iv by LC-MS/MS analysis; assay type: ADME, organism-based; conditions: in vivo
[6] = Cmax in Han Wistar rat at 2 mg/kg, po by LC-MS/MS analysis; assay type: ADME, organism-based; parameters: dose 2 mg/kg, route po; conditions: in vivo
[7] = Oral bioavailability in Han Wistar rat at 2 mg/kg by LC-MS/MS analysis; assay type: ADME, organism-based; conditions: in vivo
[8] = Plasma protein binding in CD1 mouse at 5 mg/kg, po by LC-MS/MS analysis; assay type: ADME, organism-based; conditions: read-out: PPB (converted)
[9] = Half life in Han Wistar rat at 1 mg/kg, iv by LC-MS/MS analysis; assay type: ADME, organism-based; conditions: in vivo
[10] = AUC (0 to inf) in Han Wistar rat at 2 mg/kg, po by LC-MS/MS analysis; assay type: ADME, organism-based; parameters: time infinity, dose 2 mg/kg, route po; conditions: in vivo
[11] = Volume of distribution at steady state in Han Wistar rat at 1 mg/kg, iv by LC-MS/MS analysis; assay type: ADME, organism-based; conditions: in vivo, read-out: Vdss
[12] = Plasma protein binding in Han Wistar rat at 2 mg/kg, po by LC-MS/MS analysis; assay type: ADME, organism-based; conditions: read-out: PPB (converted)
[13] = Permeability of the compound across artificial membrane by AMP assay; assay type: ADME; conditions: PAMPA; read-out: permeability
[14] = Distribution coefficient, logD of the compound by chromatography; assay type: physicochemical; conditions: octanol/water
[15] = Solubility by CLND assay; assay type: physicochemical
COLO-320-HSR [16] = assay: Decrease in MYC mRNA level in human COLO 320HSR cells incubated for 6 hrs by qRT-PCR analysis; assay type: functional, cell-based
COLO-320-HSR [17] = assay: Decrease in c-MYC protein level in human COLO 320HSR cells incubated for 24 hrs by Western blot analysis; assay type: functional, cell-based
[18] = Decrease in nascent MYC mRNA level in human COLO 320HSR cells at 2 uM incubated for 75 mins by qRT-PCR analysis; assay type: functional; conditions: 1.25 h
COLO-320-HSR [19] = assay: Effect on MCL-1 protein level in human COLO 320HSR cells incubated for 24 hrs by Western blot analysis; assay type: functional, cell-based
[20] = Clearance in CD1 mouse at 0.51 mg/kg, iv by LC-MS/MS analysis; assay type: ADME, organism-based; conditions: in vivo
[21] = Volume of distribution at steady state in CD1 mouse at 0.51 mg/kg, iv by LC-MS/MS analysis; assay type: ADME, organism-based; conditions: in vivo, read-out: Vdss
[22] = Half life in CD1 mouse at 0.51 mg/kg, iv by LC-MS/MS analysis; assay type: ADME, organism-based; conditions: in vivo

Q: With `CCN(CC)c1ccc(-c2nc3ccccc3n2CCOC(C)C)cn1` as the compound, how does the EC50 [1] read?
A: 251 nM

Q: With `COc1cc(C(N)=O)c(F)c2nc(-c3ccc(N4[C@@H](C)CC[C@@H]4C)nc3)n(C[C@@H]3CN(C)CCO3)c12` as the compound, how does the EC50 [1] read?
A: 20 nM

Q: For `CNC(=O)c1cc(OC)c2c(nc(-c3ccc(N4[C@@H](C)CC[C@@H]4C)nc3)n2C[C@@H]2CN(C)CCO2)c1F`, which AUC(0-inf) [2] is on record?
A: 784 ng·h/mL

Q: And the bioavailability [3]?
A: 26%

Q: And the Cmax [4]?
A: 205 ng/mL

Q: And the clearance [5]?
A: 11 mL/min/kg

Q: What about the Cmax [6] of the same compound?
A: 180 ng/mL

Q: What about the bioavailability [7] of the same compound?
A: 83%

Q: And the fraction unbound [8]?
A: 0.07

Q: What about the half-life [9] of the same compound?
A: 4.3 h

Q: What about the AUC(0-inf) [10] of the same compound?
A: 3160 ng·h/mL

Q: What about the Vd [11] of the same compound?
A: 2.8 L/kg

Q: What about the fraction unbound [12] of the same compound?
A: 0.05

Q: What about the EC50 [1] of the same compound?
A: 63.1 nM

Q: For `CNC(=O)c1cc(OC)c2c(c1)nc(-c1ccc(N3[C@@H](C)CC[C@@H]3C)nc1)n2C[C@@H]1CNCCO1`, which Papp [13] is on record?
A: 1.3 ×10⁻⁶ cm/s

Q: For `CCOCCn1c(-c2ccc(N3[C@@H](C)CC[C@@H]3C)nc2)nc2ccccc21`, which chromatographic logD [14] is on record?
A: 6.4

Q: What about the Papp [13] of the same compound?
A: 54.5 ×10⁻⁶ cm/s

Q: What about the solubility kinetic [15] of the same compound?
A: 254 µM (≈ 92.6 µg/mL)

Q: What about the EC50 [1] of the same compound?
A: 251 nM

Q: With `CCN(CC)c1ccc(-c2nc3ccccc3n2CCOC(C)(C)C)cn1` as the compound, how does the EC50 [1] read?
A: 316 nM

Q: Which EC50 [1] does the source give for `CCN(CC)c1ccc(-c2nc3c(C#N)cccc3n2Cc2ccn(CC)n2)cn1` here?
A: 1000 nM

Q: With `CCCCn1c(-c2ccc(N(CC)CC)nc2)nc2ccccc21` as the compound, how does the EC50 [1] read?
A: 12600 nM

Q: With `CCN(CC)c1ccc(-c2nc3cc(C(=O)NC)ccc3n2Cc2ccn(CC)n2)cn1` as the compound, how does the Activity (COLO-320-HSR [16]) read?
A: Dose-dependent effect

Q: What about the Activity (COLO-320-HSR [17]) of the same compound?
A: Dose-dependent effect

Q: What about the inhibition at 2 µM [18] of the same compound?
A: 50%

Q: And the EC50 [1]?
A: 126 nM

Q: And the Activity (COLO-320-HSR [19])?
A: inactive

Q: With `CCN(CC)c1ccc(-c2nc3ccccc3n2Cc2ccn(CC)n2)cc1` as the compound, how does the EC50 [1] read?
A: 25100 nM

Q: With `CCNc1ccc(-c2nc3ccccc3n2Cc2ccn(CC)n2)cn1` as the compound, how does the EC50 [1] read?
A: 39800 nM

Q: With `COc1cccc2nc(-c3ccc(N4[C@@H](C)CC[C@@H]4C)nc3)n(C[C@@H]3CNC[C@H](C)O3)c12` as the compound, how does the chromatographic logD [14] read?
A: 4.4

Q: What about the EC50 [1] of the same compound?
A: 158 nM

Q: Which clearance [20] does the source give for `COc1cc(C(N)=O)c(F)c2nc(-c3ccc(N4CCC[C@@H]4C)nc3)n(C[C@@H]3CN(C)CCO3)c12` here?
A: 24 mL/min/kg

Q: What about the AUC(0-inf) [2] of the same compound?
A: 1240 ng·h/mL

Q: What about the bioavailability [3] of the same compound?
A: 43%

Q: What about the Cmax [4] of the same compound?
A: 380 ng/mL

Q: What about the Vd [21] of the same compound?
A: 0.88 L/kg

Q: And the clearance [5]?
A: 14 mL/min/kg

Q: What about the Cmax [6] of the same compound?
A: 500 ng/mL

Q: What about the bioavailability [7] of the same compound?
A: 100%

Q: And the fraction unbound [8]?
A: 0.03

Q: And the half-life [9]?
A: 6.4 h

Q: And the AUC(0-inf) [10]?
A: 4300 ng·h/mL

Q: What about the Vd [11] of the same compound?
A: 2.5 L/kg

Q: And the fraction unbound [12]?
A: 0.04

Q: And the half-life [22]?
A: 0.55 h

Q: And the EC50 [1]?
A: 63.1 nM

Q: For `CCN(CC)c1ccc(-c2nc3cc(C(=O)NCCO)ccc3n2CCOC(C)(C)C)cn1`, which EC50 [1] is on record?
A: 200 nM

Q: For `CCN(CC)c1ccc(-c2nc3c(C)cccc3n2Cc2ccn(CC)n2)cn1`, which EC50 [1] is on record?
A: 316 nM

Q: Which results are given for `Cc1cccc2nc(-c3ccc(N4[C@@H](C)CC[C@@H]4C)nc3)n(Cc3ccn(C)n3)c12`?
A: chromatographic logD [14]: 7; Papp [13]: 64 ×10⁻⁶ cm/s; solubility kinetic [15]: 309 µM (≈ 124 µg/mL); EC50 [1]: 100 nM

Q: With `CCN(CC)c1ccc(-c2nc3cc(C)ccc3n2Cc2ccn(CC)n2)cn1` as the compound, how does the EC50 [1] read?
A: 631 nM

Q: Which EC50 [1] does the source give for `CCOCCn1c(-c2ccc(N3[C@@H](C)CC[C@@H]3C)nc2)nc2cccc(OC)c21` here?
A: 25.1 nM

Q: For `CCN(CC)c1ccc(-c2nc3ccccc3n2Cc2ccn(CC)n2)cn1`, which EC50 [1] is on record?
A: 631 nM

Q: Which EC50 [1] does the source give for `CCn1ccc(Cn2c(-c3ccc(N4CCCC4)nc3)nc3ccccc32)n1` here?
A: 5010 nM

Q: Which EC50 [1] does the source give for `CCN(CC)c1ccc(-c2nc3cccc(NC)c3n2Cc2ccn(C)n2)cn1` here?
A: 631 nM

Q: Which EC50 [1] does the source give for `CCN(CC)c1ccc(-c2nc3ccccc3n2CCOC)cn1` here?
A: 2510 nM

Q: For `CCOCCn1c(-c2ccc(N3[C@H](C)CC[C@@H]3C)nc2)nc2ccccc21`, which EC50 [1] is on record?
A: 2000 nM

Q: Which Papp [13] does the source give for `CNC(=O)c1cc(OC)c2c(c1)nc(-c1ccc(N3[C@@H](C)CC[C@@H]3C)nc1)n2C[C@@H]1CN(C)CCO1` here?
A: 22 ×10⁻⁶ cm/s

Q: With `CCN(CC)c1ccc(-c2nc3ccccc3n2CCc2ccn(CC)n2)cn1` as the compound, how does the EC50 [1] read?
A: 25100 nM

Q: For `CCCN(CC)c1ccc(-c2nc3ccccc3n2Cc2ccn(CC)n2)cn1`, which EC50 [1] is on record?
A: 1580 nM

Q: What does the source list for `C[C@@H]1CN(C)C[C@H](Cn2c(-c3ccc(N4[C@@H](C)CC[C@@H]4C)nc3)nc3ccccc32)O1`?
A: chromatographic logD [14]: 5.5; EC50 [1]: 20000 nM

Q: For `CCN(CC)c1ccc(-c2nc3cc(OC)ccc3n2Cc2ccn(CC)n2)cn1`, which EC50 [1] is on record?
A: 794 nM

From ChEMBL document CHEMBL5055661, “Cell-Based Drug Discovery: Identification and Optimization of Small Molecules that Reduce c-MYC Protein Levels in Cells” (J Med Chem, 2021)
